We go through 10 compounds from US20240247080A1, “GLP1/GIP/NPY2 RECEPTOR TRIPLE AGONISTS” (Boehringer Ingelheim International GmbH, priority 2022, published 2024).

Read-outs that look alike come from different tables or passages of the source. Starred links: 1 amine or outer side, 2 acyl side, 3 side chain; linkers in the order of their positions; H or OH if unused. Non-standard residues stand in square brackets, D forms with d. Groups on a side chain read outwards from the residue. *: point of attachment. C20 diacid = O=C(O)CCCCCCCCCCCCCCCCCCC(=O)*; C18 diacid = O=C(O)CCCCCCCCCCCCCCCCC(=O)*; γGlu = O=C(O)[C@H](CCC(=O)[*:2])N[*:1]; εLys = N[C@@H](CCCCN[*:1])C(=O)[*:2]; AEEA = NCCOCCOCC(=O)O; Aib = CC(C)(N)C(=O)O; Ahx = NCCCCCC(=O)O

Assay type in all cases: cell-based
Common to all, as to details: CreLuc reporter gene assay
In general terms: In a reporter assay the amount or activity of a reporter protein is the signal.

The target in experiment [1] is T1, hGLP1R (Homo sapiens, UniProt P43220).
T1 construct: expressed in transfected cells; host or cells: HEK-293 cells carrying a CRE-luciferase reporter gene
In words: hGLP1R CreLuc reporter gene assay in 0.5% and 100% plasma. The method, boiled down:
(§1)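 HEK-293 cells co-expressing GLP-1 or NPY2 receptor and CHO cells expressing GIP receptor, each carrying a CRE-driven luciferase reporter, were stimulated with peptides for 4 hours at 37 °C. Luminescence was read after Bright-Glo addition. EC50 came from 8-point, four-decade curves fitted by variable-slope non-linear regression.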

In experiment [2] the target is T2, hGIPR (Homo sapiens, UniProt P48546).
T2 construct: expressed in transfected cells; host or cells: CHO cells carrying a CRE-luciferase reporter gene
T2 sequence (P48546 22-466): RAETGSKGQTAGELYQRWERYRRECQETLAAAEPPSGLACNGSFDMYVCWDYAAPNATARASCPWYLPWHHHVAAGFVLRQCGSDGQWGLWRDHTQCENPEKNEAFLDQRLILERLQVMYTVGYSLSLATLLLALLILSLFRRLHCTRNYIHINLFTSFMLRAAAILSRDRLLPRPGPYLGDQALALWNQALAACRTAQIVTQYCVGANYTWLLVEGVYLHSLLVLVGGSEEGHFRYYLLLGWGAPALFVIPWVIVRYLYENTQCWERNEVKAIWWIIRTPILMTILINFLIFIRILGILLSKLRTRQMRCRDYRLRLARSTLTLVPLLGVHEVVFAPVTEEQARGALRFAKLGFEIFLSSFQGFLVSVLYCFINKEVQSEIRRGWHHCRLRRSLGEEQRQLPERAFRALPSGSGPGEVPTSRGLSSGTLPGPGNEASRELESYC
In words: hGIPR CreLuc reporter gene assay in 0.5% and 100% plasma. The method, boiled down: as §1

The target in experiment [3] is T3, hNPY2R (Homo sapiens, UniProt P49146).
T3 construct: expressed in transfected cells; host or cells: HEK-293 cells carrying a CRE-luciferase reporter gene
T3 sequence (P49146 1-381): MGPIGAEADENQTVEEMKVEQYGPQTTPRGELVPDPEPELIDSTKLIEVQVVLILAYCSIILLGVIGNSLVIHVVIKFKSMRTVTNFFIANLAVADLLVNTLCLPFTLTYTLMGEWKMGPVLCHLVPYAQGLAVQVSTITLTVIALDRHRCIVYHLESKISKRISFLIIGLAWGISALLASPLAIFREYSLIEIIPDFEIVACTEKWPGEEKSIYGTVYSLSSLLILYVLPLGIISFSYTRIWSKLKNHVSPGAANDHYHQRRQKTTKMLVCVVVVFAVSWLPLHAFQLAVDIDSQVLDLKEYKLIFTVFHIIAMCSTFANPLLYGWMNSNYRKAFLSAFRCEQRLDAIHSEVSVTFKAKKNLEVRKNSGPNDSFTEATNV
As to the kind of experiment: hNPY2R CreLuc reporter gene assay in 0.5% and 100% plasma. The procedure, abridged: as §1

The mark [4] stands for this setting: 0.5% human plasma, read-out: hGLP1R 0.5% hP.
Setting [5] is: 0.5% human plasma, read-out: hGIPR 0.5% hP.
Setting [6] is: 0.5% human plasma, read-out: hNPY2R 0.5% hP.
[7] abbreviates: 100% human plasma, read-out: hGIPR 100% hP.
Where [8] appears, read: 100% human plasma, read-out: hNPY2R 100% hP.
Where [9] appears, read: 100% human plasma, read-out: hGLP1R 100% hP.

T1 sequence (P43220 24-463): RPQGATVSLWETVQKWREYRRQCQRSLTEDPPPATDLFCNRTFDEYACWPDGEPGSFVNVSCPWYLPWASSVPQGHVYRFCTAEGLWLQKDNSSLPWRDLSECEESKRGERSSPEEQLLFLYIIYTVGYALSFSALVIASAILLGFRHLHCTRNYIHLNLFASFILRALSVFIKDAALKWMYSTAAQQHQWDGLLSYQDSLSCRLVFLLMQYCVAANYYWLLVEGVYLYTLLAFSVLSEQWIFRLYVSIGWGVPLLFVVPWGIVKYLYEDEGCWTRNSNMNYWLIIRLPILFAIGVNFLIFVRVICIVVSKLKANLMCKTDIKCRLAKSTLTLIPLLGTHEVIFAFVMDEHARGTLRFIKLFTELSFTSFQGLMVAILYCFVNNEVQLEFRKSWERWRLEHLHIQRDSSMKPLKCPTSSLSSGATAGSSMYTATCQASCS

Regarding “H-Y[Aib]EGTFTSDYSI[Aib]LEKQAQ[Aib]EFVEWLIK([γGlu-γGlu-γGlu-γGlu-γGlu-γGlu-C20 diacid])GGPSSGASLRHYYNWLTRQRY-NH2 [Compound 198, Y-Aib-E-G-T-F-T-S-D-Y-S-I-Aib-L-E-K-Q-A-Q-Aib-E-F-V-E-W-L-I-K(1,3)-GGPSSGASLRHYYNWLTRQRY-NH2.C20DA-gGlu-gGlu-gGlu-gGlu-gGlu-glu(1,2)]”, the EC50 was 0.47 nM in experiment [1] (setting [4]), 0.26 nM in experiment [2] (setting [5]) and 13.1 nM in experiment [3] (setting [6]).

In the case of “H-Y[Aib]EGTFTSDYSI[Aib]LEKQAE[Aib]AFVQWLIK([εLys-γGlu-γGlu-γGlu-γGlu-γGlu-γGlu-C18 diacid])GGPSSGASLRHYYNWLTRQRY-NH2 [Compound 51, Y-Aib-E-G-T-F-T-S-D-Y-S-I-Aib-L-E-K-Q-A-E-Aib-A-F-V-Q-W-L-I-K(1,3)-GGPSSGASLRHYYNWLTRQRY-NH2.C18DA-gGlu-gGlu-gGlu-gGlu-gGlu-gGlu-eLys(1,2)]”, the EC50 in experiment [1] (setting [4]) was 0.15 nM; in experiment [2] (setting [5]), 0.23 nM; in experiment [2] (setting [7]) it was 1.37 nM; in experiment [3] (setting [6]) it was 13.7 nM; in experiment [3] (setting [8]), 42.2 nM.

Regarding “H-Y[Aib]EGTFTSDYSI[Aib]LEKQAQ[Aib]AFVEWLIK([Ahx-γGlu-γGlu-γGlu-γGlu-γGlu-C20 diacid])GGPSEGASLRHYYNWLTRQRY-NH2 [Compound 301, Y-Aib-E-G-T-F-T-S-D-Y-S-I-Aib-L-E-K-Q-A-Q-Aib-A-F-V-E-W-L-I-K(1,3)-GGPSEGASLRHYYNWLTRQRY-NH2.C20DA-gGlu-gGlu-gGlu-gGlu-gGlu-AHX(1,2)]”, the EC50 was determined as 0.23 nM in experiment [1] (setting [4]), 0.58 nM in experiment [2] (setting [5]), 3.27 nM in experiment [2] (setting [7]) and 99.3 nM in experiment [3] (setting [8]).

Consider “H-Y[Aib]EGTFTSDYSI[Aib]LEKQAQ[Aib]EFVEWLIK([εLys-γGlu-γGlu-γGlu-γGlu-γGlu-γGlu-C20 diacid])GGPSEGASLRHYYNWLTRQRY-NH2 [Compound 275, Y-Aib-E-G-T-F-T-S-D-Y-S-I-Aib-L-E-K-Q-A-Q-Aib-E-F-V-E-W-L-I-K(1,3)-GGPSEGASLRHYYNWLTRQRY-NH2.C20DA-gGlu-gGlu-gGlu-gGlu-gGlu-gGlu-eLys(1,2)]”, for which the EC50 in experiment [1] (setting [4]) is 0.5 nM; in experiment [2] (setting [5]), 0.27 nM; in experiment [2] (setting [7]), 1.75 nM; in experiment [3] (setting [6]), 19.9 nM.

With “H-Y[Aib]EGTFTSDYSI[Aib]LEKQAQ[Aib]AFVEWLIK([AEEA-AEEA-γGlu-γGlu-γGlu-γGlu-C18 diacid])GGPSEPASLRHYYNWLTRQRY-NH2 [Compound 256, Y-Aib-E-G-T-F-T-S-D-Y-S-I-Aib-L-E-K-Q-A-Q-Aib-A-F-V-E-W-L-I-K(1,3)-GGPSEPASLRHYYNWLTRQRY-NH2.C18DA-gGlu-gGlu-gGlu-gGlu-OEG-OEG(1,2)]”, the EC50 in experiment [1] (setting [4]) came out at 0.18 nM; in experiment [2] (setting [5]) it was 0.23 nM; in experiment [2] (setting [7]), 1.56 nM; in experiment [3] (setting [6]), 10.9 nM.

For “H-Y[Aib]EGTFTSDYSI[Aib]LEKQAQ[Aib]AFVQWLIK([AEEA-AEEA-γGlu-γGlu-γGlu-γGlu-C20 diacid])GGPEEGASLRHYYNWLTRQRY-NH2 [Compound 193, Y-Aib-E-G-T-F-T-S-D-Y-S-I-Aib-L-E-K-Q-A-Q-Aib-A-F-V-Q-W-L-I-K(1,3)-GGPEEGASLRHYYNWLTRQRY-NH2.C20DA-gGlu-gGlu-gGlu-gGlu-OEG-OEG(1,2)]”, the EC50 amounted to 0.36 nM in experiment [1] (setting [4]), 0.5 nM in experiment [2] (setting [5]) and 13.6 nM in experiment [3] (setting [6]).

Consider `CC[C@H](C)[C@H](NC(=O)[C@H](CC(C)C)NC(=O)[C@H](Cc1c[nH]c2ccccc12)NC(=O)[C@H](CCC(=O)O)NC(=O)[C@@H](NC(=O)[C@H](Cc1ccccc1)NC(=O)[C@H](C)NC(=O)C(C)(C)NC(=O)[C@H](CCC(N)=O)NC(=O)[C@H](C)NC(=O)[C@H](CCC(N)=O)NC(=O)[C@H](CCCCN)NC(=O)[C@H](CCC(=O)O)NC(=O)[C@H](CC(C)C)NC(=O)C(C)(C)NC(=O)[C@@H](NC(=O)[C@H](CO)NC(=O)[C@H](Cc1ccc(O)cc1)NC(=O)[C@H](CC(=O)O)NC(=O)[C@H](CO)NC(=O)[C@@H](NC(=O)[C@H](Cc1ccccc1)NC(=O)[C@@H](NC(=O)CNC(=O)[C@H](CCC(=O)O)NC(=O)C(C)(C)NC(=O)[C@@H](N)Cc1ccc(O)cc1)[C@@H](C)O)[C@@H](C)O)[C@@H](C)CC)C(C)C)C(=O)N[C@@H](CCCCNC(=O)[C@@H](N)CCCCNC(=O)CC[C@H](NC(=O)CC[C@H](NC(=O)CC[C@H](NC(=O)CC[C@H](NC(=O)CC[C@H](NC(=O)CC[C@H](NC(=O)CCCCCCCCCCCCCCCCCCC(=O)O)C(=O)O)C(=O)O)C(=O)O)C(=O)O)C(=O)O)C(=O)O)C(=O)NCC(=O)NCC(=O)N1CCC[C@H]1C(=O)N[C@@H](CO)C(=O)N[C@@H](CCC(=O)O)C(=O)NCC(=O)N[C@@H](CCC(=O)O)C(=O)N[C@@H](CO)C(=O)N[C@@H](CC(C)C)C(=O)N[C@@H](CCCNC(=N)N)C(=O)N[C@@H](Cc1c[nH]cn1)C(=O)N[C@@H](Cc1ccc(O)cc1)C(=O)N[C@@H](Cc1ccc(O)cc1)C(=O)N[C@@H](CC(N)=O)C(=O)N[C@@H](Cc1c[nH]c2ccccc12)C(=O)N[C@@H](CC(C)C)C(=O)N[C@H](C(=O)N[C@@H](CCCNC(=N)N)C(=O)N[C@@H](CCC(N)=O)C(=O)N[C@@H](CCCNC(=N)N)C(=O)N[C@@H](Cc1ccc(O)cc1)C(N)=O)[C@@H](C)O` [Compound 237, Y-Aib-E-G-T-F-T-S-D-Y-S-I-Aib-L-E-K-Q-A-Q-Aib-A-F-V-E-W-L-I-K(1,3)-GGPSEGESLRHYYNWLTRQRY-NH2.C20DA-gGlu-gGlu-gGlu-gGlu-gGlu-gGlu-eLys(1,2)], for which the EC50 was 0.26 nM in experiment [1] (setting [4]); 3.11 nM in experiment [1] (setting [9]); 0.1 nM in experiment [2] (setting [5]); 1.17 nM in experiment [2] (setting [7]); 18 nM in experiment [3] (setting [6]).

On to “H-Y[Aib]EGTFTSDYSI[Aib]LEKQAQ[Aib]AFVEWLIK([εLys-γGlu-γGlu-γGlu-γGlu-γGlu-γGlu-C20 diacid])GGPSSGES[Aib]RHYYNWLTRQRY-NH2 [Compound 49, Y-Aib-E-G-T-F-T-S-D-Y-S-I-Aib-L-E-K-Q-A-Q-Aib-A-F-V-E-W-L-I-K(1,3)-G-G-P-S-S-G-E-S-Aib-R-H-Y-Y-N-W-L-T-R-Q-R-Y-NH2.C20DA-gGlu-gGlu-gGlu-gGlu-gGlu-gGlu-eLys(1,2)]”, for which the EC50 in experiment [1] (setting [4]) was 0.12 nM; in experiment [2] (setting [5]), 0.07 nM; in experiment [2] (setting [7]), 1.25 nM; in experiment [3] (setting [6]), 12.5 nM; in experiment [3] (setting [8]), 36.8 nM.

Consider “H-Y[Aib]EGTFTSDYSI[Aib]LEKQAQ[Aib]AFVEWLIK([AEEA-AEEA-γGlu-γGlu-γGlu-C18 diacid])GGPEEGASLRHYYNWLTRQRY-NH2 [Compound 248, Y-Aib-E-G-T-F-T-S-D-Y-S-I-Aib-L-E-K-Q-A-Q-Aib-A-F-V-E-W-L-I-K(1,3)-GGPEEGASLRHYYNWLTRQRY-NH2.C18DA-gGlu-gGlu-gGlu-OEG-OEG(1,2)]”, for which the EC50 in experiment [1] (setting [4]) turned out to be 0.25 nM; in experiment [2] (setting [5]), 0.12 nM; in experiment [2] (setting [7]), 0.79 nM; in experiment [3] (setting [6]), 18.7 nM.

“H-Y[Aib]EGTFTSDYSI[Aib]LEKQAQ[Aib]AFVQWLIK([AEEA-AEEA-γGlu-γGlu-γGlu-γGlu-C18 diacid])GGPSEPASLRHYYNWLTRQRY-NH2 [Compound 173, Y-Aib-E-G-T-F-T-S-D-Y-S-I-Aib-L-E-K-Q-A-Q-Aib-A-F-V-Q-W-L-I-K(1,3)-GGPSEPASLRHYYNWLTRQRY-NH2.C18DA-gGlu-gGlu-gGlu-gGlu-OEG-OEG(1,2)]”: the EC50 in experiment [1] (setting [4]) came out at 0.11 nM; in experiment [1] (setting [9]), 3.07 nM; in experiment [2] (setting [5]) it was 0.27 nM; in experiment [2] (setting [7]), 0.94 nM; in experiment [3] (setting [6]) it was 12.4 nM; in experiment [3] (setting [8]) it was 24.9 nM.
